Experiment: molar heat capacity at constant pressure
Conditions: 101.33 kPa, Crystal

O=C([O-])[O-].[Li+].[Li+] [lithium carbonate]
Conditions | molar heat capacity at constant pressure [J/K/mol]
303.15 K | 99.89
323.15 K | 100.98
343.15 K | 107.69
363.15 K | 111.21
383.15 K | 115.61
403.15 K | 116.88
443.15 K | 120.05
483.15 K | 129.08
533.15 K | 132.77
563.15 K | 137.29

Source: the NIST ThermoML archive (doi:10.1016/j.tca.2006.10.005)
